According to patent US9855220B2, “Methods of treating pancreatic cancer” (priority 2013, dated 2018):

What was measured:
[1] = tested on: patients with locally advanced pancreatic cancer; settings: cited from earlier work
[2] = tested on: patients with metastatic adenocarcinoma of the pancreas; assay: MPACT phase 3 study: time to treatment failure; type: in vivo, human
Description: (§1) The primary efficacy endpoint was overall survival (OS). […] 3.0 (NCI CTCAE).
(§2) Study endpoints were determined by analyzing the following criteria: (1) changes in serum CA 19-9 levels; (2) changes in plasma SPARC (secreted protein, acidic and rich in cysteine) levels; (3) time and duration of response (using RECIST v. 1.0); (4) disease control rate based on objective response or stable disease ≧16 weeks; (5) time to treatment failure; (6) progression-free survival and overall response rate by investigator; and (7) tumor response by PET scans using EORTC criteria and blinded radiology assessments. When assessing study endpoints, researchers examined correlations between objective tumor response as determined by CT and PET scans, molecular marker expression and efficacy, and objective tumor response as determined by PET, progression-free survival, CA 19-9 levels, SPARC levels and overall survival.

[3] = tested on: patients with metastatic adenocarcinoma of the pancreas; assay: MPACT phase 3 study: overall survival; type: in vivo, human; settings: for median overall survival: intent-to-treat population; for Median OS 95% CI (months): intent-to-treat
Excerpt: (§3) Patients who had not experienced disease progression were followed with regularly scheduled spiral CT/MRI scans every 8 weeks in both arms. Patients were followed for survival until death or study closure.
The 1:1 randomization was stratified by: (1) Karnofsky performance status (PS) (70-80 versus 90-100); (2) Region (Australia, North America, Eastern/Western Europe); (3) Presence of liver metastasis (Yes vs. No).
(§4) The primary efficacy endpoint was overall survival (OS). Secondary efficacy endpoints were progression-free survival (PFS) (measured by blinded, independent radiology assessments done at 8 weeks), objective tumor response according to Response Evaluation Criteria in Solid Tumors (RECIST v. 1.0) based on Spiral computed tomography (CT) scans/magnetic resonance imaging (MRI). Other endpoints included were progression-free survival and objective response rate (ORR) by investigator review, disease control rate (DCR), time to failure (TTF), and safety/tolerability by National Cancer Institute Common Terminology Criteria for Adverse Events v. 3.0 (NCI CTCAE).
(§5) The sample size was increased prior to the interim analysis to increase the power from 80% to 90% (842 patients, 608 events) to detect a hazard ratio (HR) of 0.769 (2-sided α:0.049). 1 interim survival analysis was planned for futility. The intent-to-treat (ITT) population was evaluated for efficacy, the treated population for safety. Treatment differences in overall survival and progression-free survival were tested using stratified log-rank; objective response rates were tested using the chi-squared test.

[4] = tested on: patients with metastatic adenocarcinoma of the pancreas; assay: MPACT phase 3 study: objective tumor response and disease control rate (RECIST v. 1.0); type: in vivo, human
Description: as §1
(§6) 1 interim survival analysis was planned for futility.
as §2

[5] = tested on: patients with metastatic adenocarcinoma of the pancreas; type: in vivo
Excerpt: as §3

[6] = tested on: patients with metastatic adenocarcinoma of the pancreas
Excerpt: as §3, §4, §5

[7] = tested on: pancreatic cancer; settings: in vivo; cited from earlier work
[8] = tested on: patients with metastatic adenocarcinoma of the pancreas; assay: MPACT phase 3 study: progression-free survival (independent radiological review, investigator review); type: in vivo, human; settings: for Progression-free rate (%): independent radiological review
Description: as §1, §6, §2

[9] = independent radiological review
[10] = best response by blinded assessment
[11] = best response by blinded assessment / independent review
[12] = number of patients (% of arm), N = 431 vs N = 430
[13] = treated population, N = 421 vs N = 402

## O=c1[nH]cc(F)c(=O)[nH]1 [5-FU, 5-fluororuracil]
[1]
  median overall survival: 4.2 months
  median time to disease progression: 0.9 months

## Nc1ccn([C@@H]2O[C@H](CO)[C@@H](O)C2(F)F)c(=O)n1 [Gemcitabine, gemcitabine]
[2]; [9]
  Median TTF: 3.6 months
  Patients with Treatment Failure, %: 94%
[2]; time to treatment failure analysis
  Patients Censored, %: 6%
[3]; ITT
  Patients Died, %: (83%)
[3]; censor at time of 2nd line therapy
  Median OS, sensitivity analysis: 6.8 Months
[3]
  median overall survival: 6.7 (6.01-7.23) months
[3]; listed as gemcitabine
  median overall survival: 6.7 months
[3]; subgroup Geographic Region: Eastern Europe
  Median OS 95% CI (months): 5.9 (4.67, 7.46) months
[3]; subgroup Geographic Region: North America
  Median OS 95% CI (months): 6.8 (6.01, 7.52) months
[3]; subgroup Geographic Region: Western Europe
  Median OS 95% CI (months): 6.9 (5.09, —)^ months
[3]; subgroup Pancreatic Cancer Primary Location: Head
  Median OS 95% CI (months): 6.5 (5.55, 7.29) months
[3]; subgroup Pancreatic Cancer Primary Location: Other
  Median OS 95% CI (months): 6.9 (5.98, 7.52) months
[3]; time point 6 month
  % survival: 55%
[3]; time point 9 month
  % survival: 36%
[3]; time point 12 month (1-year survival rate)
  % survival: 22%
[3]; time point 18 month
  % survival: 9%
[3]; time point 24 month (2-year survival rate)
  % survival: 4%
[4]; [10]
  Not evaluable, %: 39%
  Progressive Disease, %: 26%
  Stable Disease, %: 28%
[4]; [11]
  Complete Response, %: 0%
  Partial Response, %: 7%
[4]; confirmed complete or partial response, ITT
  ORR, blinded (independent radiological) assessment: 7%
[4]; in vivo
  ORR, investigator assessment: 8%
[4]; independent review
  Stable Disease ≧16 weeks, %: 26%
[4]; objective response or stable disease ≧16 weeks
  DCR (disease control rate) by independent review: 33%
[1]
  median overall survival: 5.7 months
  median time to disease progression: 2.1 months
[5]; gemcitabine component
  Patients with ≧1 Dose Reduction, %: gemcitabine: 33%
[5]; [12]
  Reason for Therapy Discontinuation: Adverse Events: 73 (17%)
  Reason for Therapy Discontinuation: Adverse Events Related to Study Drug: 29 (7%)
  Reason for Therapy Discontinuation: Progressive Disease: 245 (57%)
[6]; human, in vivo
  Febrile Neutropenia (any grade), %: 1%
  Grade ≧3 Anemia, %: 12%
  Grade ≧3 Diarrhea, %: 2%
  Grade ≧3 Fatigue, %: 7%
  Grade ≧3 Leukopenia, %: 16%
  Grade ≧3 Neuropathy, Time to Improvement by 1 grade, median: 29 days
  Grade ≧3 Neuropathy, Time to Onset, median: 113 days
  Grade ≧3 Neutropenia, %: 27%
  Grade ≧3 Peripheral neuropathy, %: <1%
  Grade ≧3 Thrombocytopenia, %: 9%
  Myelosuppression: ANC, NCI CTCAE Grade 3: 82 (21) n (%)
  Myelosuppression: ANC, NCI CTCAE Grade 4: 21 (5) n (%)
  Myelosuppression: Hemoglobin, NCI CTCAE Grade 3: 42 (11) n (%)
  Myelosuppression: Hemoglobin, NCI CTCAE Grade 4: 6 (2) n (%)
  Myelosuppression: Platelet Count, NCI CTCAE Grade 3: 28 (7) n (%)
  Myelosuppression: Platelet Count, NCI CTCAE Grade 4: 8 (2) n (%)
  Subjects with at least one AE with Action of Study Drug Permanently Discontinued: 95 (24%) n (%)
  Treatment Emergent AEs Resulting in Treatment Discontinuation: Blood & Lymphatic: 16 (4%) n (%)
  Treatment Emergent AEs Resulting in Treatment Discontinuation: Gastrointestinal disorders: 22 (5%) n (%)
  Treatment Emergent AEs Resulting in Treatment Discontinuation: General Disorders/Administration Site Condition: 18 (4%) n (%)
  Treatment Emergent AEs Resulting in Treatment Discontinuation: Infections and infestations: 11 (3%) n (%)
  Treatment Emergent AEs Resulting in Treatment Discontinuation: Nervous System: 7 (2%) n (%)
  Treatment Emergent AEs Resulting in Treatment Discontinuation: Respiratory, Thoracic and mediastinal disorders: 15 (4%) n (%)
  Treatment-Emergent Grade 3 or Higher AE: Abdominal pain: 32 (8%)
  Treatment-Emergent Grade 3 or Higher AE: Anemia: 32 (8%)
  Treatment-Emergent Grade 3 or Higher AE: Asthenia: 17 (4%)
  Treatment-Emergent Grade 3 or Higher AE: Dehydration: 10 (2%)
  Treatment-Emergent Grade 3 or Higher AE: Diarrhea: 6 (1%)
  Treatment-Emergent Grade 3 or Higher AE: Fatigue: 37 (9%)
  Treatment-Emergent Grade 3 or Higher AE: Leukopenia: 15 (4%)
  Treatment-Emergent Grade 3 or Higher AE: Nausea: 14 (3%)
  Treatment-Emergent Grade 3 or Higher AE: Neutropenia: 85 (21%)
  Treatment-Emergent Grade 3 or Higher AE: Peripheral neuropathy: 3 (1%)
  Treatment-Emergent Grade 3 or Higher AE: Pulmonary Embolism: 26 (6%)
  Treatment-Emergent Grade 3 or Higher AE: Thrombocytopenia: 33 (8%)
  Treatment-Emergent Grade 3 or Higher AE: Vomiting: 15 (4%)
[6]; treated population
  Pt with at least 1 AE leading to death, %: 4%
[6]; [13]
  Subject with at Least 1 Treatment Related AE with Outcome of Death: 18 (4%) n (%)
  Treatment Emergent AEs with Outcome of Death: Cardiac Disorders: 3 (1%) n (%)
  Treatment Emergent AEs with Outcome of Death: Gastrointestinal disorders: 3 (1%) n (%)
  Treatment Emergent AEs with Outcome of Death: General disorders and administration site conditions: 3 (1%) n (%)
  Treatment Emergent AEs with Outcome of Death: Hepatobiliary disorders: 1 (<1%) n (%)
  Treatment Emergent AEs with Outcome of Death: Infections and infestations: 3 (1%) n (%)
  Treatment Emergent AEs with Outcome of Death: Neoplasm Progression: 2 (<1%) n (%)
  Treatment Emergent AEs with Outcome of Death: Nervous system disorders: 2 (<1%) n (%)
  Treatment Emergent AEs with Outcome of Death: Renal and urinary disorders: 1 (<1%) n (%)
  Treatment Emergent AEs with Outcome of Death: Respiratory, thoracic and mediastinal disorders: 3 (1%) n (%)
[7]
  median overall survival: 6.0 months
  median progression free survival: 3.5 months
[8]; ITT
  N/Events, PFS by independent radiological review: 430/265
[8]; ITT population
  Median Progression-Free Survival by independent radiological review: 3.7 months
[8]; at 6 month
  Progression-free rate (%): 25%
[8]; at 9 month
  Progression-free rate (%): 14%
[8]; at 12 month
  Progression-free rate (%): 9%
[8]; at 15 month
  Progression-free rate (%): 9%
[8]; in vivo
  Median Progression-Free Survival by investigator review: 3.5 months
  N/Events, PFS by investigator review: 430/348
